Test results published in patent US20020137929A1, “1 - (3-heterocyclylphenyl) isothiourea, -isourea, -guanidine and -amidine herbicidal agents” (Intellectual Property Department, BASF Aktiengesellschaft, priority 1998, published 2002).

Tests used:
[1] = tested on: CHEAL (Lambsquarters, Common); assay: Postemergence herbicidal evaluation; assay type: in vivo, Chenopodium album; details: postemergence
In short: (§1)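 Visual 0-9 injury score (stand, vigor, malformation, size, chlorosis, appearance vs untreated) taken four to five weeks post-spray, averaged across repeat tests. Test plants about two weeks old; foliar spray of acetone/water (1:1) with 0.5% surfactant delivering ~0.0156-0.500 kg active/ha.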

ABUTH (Velvetleaf) = assay: Postemergence herbicidal evaluation; assay type: in vivo, Abutilon theophrasti; details: postemergence
In short: as §1

ORYSAT (Rice, Tebonnet) = assay: Postemergence herbicidal evaluation; assay type: in vivo, Oryza sativa, (L.) Tebonnet; details: postemergence
In short: as §1

GALAP (Galium) = assay: Preemergence herbicidal evaluation; assay type: in vivo, Galium aparine; details: rated 4-5 weeks after treatment
In short: (§2)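 Scores (0–9) reflect visual comparison with control plants for stand, vigor, malformation, size and chlorosis. Compound was applied to the soil after sowing, before emergence, as an aqueous acetone spray (about 0.0156–0.500 kg/ha), and cups were kept in a greenhouse for 4–5 weeks.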

SETVI (Foxtail, Green) [2] = assay: Postemergence herbicidal evaluation; assay type: in vivo, Setaria viridis; details: postemergence
In short: as §1

[3] = tested on: GLXMAW (Soybean, Williams); assay: Postemergence herbicidal evaluation; assay type: in vivo, Glycine max, (L.) Merr. cv Williams; details: postemergence
In short: as §1

AMBEL (Ragweed, Common) = assay: Preemergence herbicidal evaluation; assay type: in vivo, Ambrosia artemisifolia; details: rated 4-5 weeks after treatment
From the text: Results of herbicide evaluation are expressed on a rating scale (0-9). The scale is based upon a visual observation of plant stand, vigor, malformation, size, chlorosis and overall plant appearance as compared with a control.
The preemergence herbicidal activity of the test compounds of the present invention is exemplified by the following tests in which the seeds of a variety of monocotyledonous and dicotyledonous plants are separately mixed with potting soil and planted on top of approximately one inch of soil in separate pint cups. After planting, the cups are sprayed with the selected aqueous acetone solution containing test compound in sufficient quantity to provide the equivalent of about 0.0156 to 0.500 kg per hectare of test compound per cup. The treated cups are then placed on greenhouse benches, watered and cared for in accordance with conventional greenhouse procedures. From four to five weeks after treatment, the tests are terminated and each cup is examined and rated according to the rating system provided in Example 37.
The compounds evaluated are reported by compound number given in Example 37.

SETVI (Foxtail, Green) [4] = assay: Preemergence herbicidal evaluation; assay type: in vivo, Setaria viridis; details: rated 4-5 weeks after treatment
In short: as §2

[5] = tested on: TRZAWR (Wheat, Winter, cv Riband); assay: Postemergence herbicidal evaluation; assay type: in vivo, Triticum aestivum; details: postemergence
In short: as §1

CYPIR (Rice Flatsedge) = assay: Preemergence weed control under flooded paddy conditions; assay type: in vivo, Cyperus iria; details: rated 3-4 weeks after treatment
In short: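 Silt loam, seeds in top 0.5 cm; flood held 1.5-3 cm; test cpd as acetone/water 50/50 into flood water, ~0.0313-0.500 kg/ha a.i.; greenhouse 3-4 wk; visual 0-9 score vs control.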

ZEAMX (Corn, Field) = assay: Postemergence herbicidal evaluation; assay type: in vivo, Zea mays; details: postemergence
In short: as §1

CC(C)N1C(=O)CSC1=Nc1cc(-n2c(=O)cc(C(F)(F)F)n(C)c2=O)c(F)cc1Cl [Compound 164, 3-{4-Chloro-2-fluoro-5-[(3-isopropyl-4-oxo-2-thiazolidinylidene)amino]phenyl}-1-methyl-6-(trifluoromethyl)-2,4(1H,3H)-pyrimidinedione]
Herbicidal rating CHEAL ([1]; rate 0.0156 kg/ha): 9.0 | Herbicidal rating CHEAL ([1]; rate 0.0313 kg/ha): 9.0 | Herbicidal rating CHEAL ([1]; rate 0.0625 kg/ha): 9.0 | Herbicidal rating CHEAL ([1]; rate 0.1250 kg/ha): 9.0 | Herbicidal rating ABUTH (ABUTH (Velvetleaf); rate 0.0156 kg/ha): 9.0 | Herbicidal rating ABUTH (ABUTH (Velvetleaf); rate 0.0313 kg/ha): 9.0 | Herbicidal rating ABUTH (ABUTH (Velvetleaf); rate 0.0625 kg/ha): 9.0 | Herbicidal rating ABUTH (ABUTH (Velvetleaf); rate 0.1250 kg/ha): 9.0 | Herbicidal rating ORYSAT (ORYSAT (Rice, Tebonnet); rate 0.0156 kg/ha): 2.5 | Herbicidal rating ORYSAT (ORYSAT (Rice, Tebonnet); rate 0.0313 kg/ha): 4.0 | Herbicidal rating ORYSAT (ORYSAT (Rice, Tebonnet); rate 0.0625 kg/ha): 5.0 | Herbicidal rating ORYSAT (ORYSAT (Rice, Tebonnet); rate 0.1250 kg/ha): 5.0 | Preemergence herbicidal rating GALAP (GALAP (Galium); 0.0156 kg/ha): 3.0 | Preemergence herbicidal rating GALAP (GALAP (Galium); 0.0313 kg/ha): 4.0 | Preemergence herbicidal rating GALAP (GALAP (Galium); 0.0625 kg/ha): 4.0 | Preemergence herbicidal rating GALAP (GALAP (Galium); 0.1250 kg/ha): 9.0 | Preemergence herbicidal rating GALAP (GALAP (Galium); 0.2500 kg/ha): 7.0 | Preemergence herbicidal rating GALAP (GALAP (Galium); 0.5000 kg/ha): 9.0 | Herbicidal rating SETVI (SETVI (Foxtail, Green) [2]; rate 0.0156 kg/ha): 4.0 | Herbicidal rating SETVI (SETVI (Foxtail, Green) [2]; rate 0.0313 kg/ha): 7.0 | Herbicidal rating SETVI (SETVI (Foxtail, Green) [2]; rate 0.0625 kg/ha): 9.0 | Herbicidal rating SETVI (SETVI (Foxtail, Green) [2]; rate 0.1250 kg/ha): 6.0 | Herbicidal rating GLXMAW ([3]; rate 0.0156 kg/ha): 6.0 | Herbicidal rating GLXMAW ([3]; rate 0.0313 kg/ha): 6.0 | Herbicidal rating GLXMAW ([3]; rate 0.0625 kg/ha): 7.0 | Herbicidal rating GLXMAW ([3]; rate 0.1250 kg/ha): 7.5 | Preemergence herbicidal rating AMBEL (AMBEL (Ragweed, Common); 0.0156 kg/ha): 6.0 | Preemergence herbicidal rating AMBEL (AMBEL (Ragweed, Common); 0.0313 kg/ha): 7.0 | Preemergence herbicidal rating AMBEL (AMBEL (Ragweed, Common); 0.0625 kg/ha): 7.0 | Preemergence herbicidal rating AMBEL (AMBEL (Ragweed, Common); 0.1250 kg/ha): 7.0 | Preemergence herbicidal rating AMBEL (AMBEL (Ragweed, Common); 0.2500 kg/ha): 9.0 | Preemergence herbicidal rating AMBEL (AMBEL (Ragweed, Common); 0.5000 kg/ha): 9.0 | Preemergence herbicidal rating SETVI (SETVI (Foxtail, Green) [4]; 0.0156 kg/ha): 4.0 | Preemergence herbicidal rating SETVI (SETVI (Foxtail, Green) [4]; 0.0313 kg/ha): 9.0 | Preemergence herbicidal rating SETVI (SETVI (Foxtail, Green) [4]; 0.0625 kg/ha): 9.0 | Preemergence herbicidal rating SETVI (SETVI (Foxtail, Green) [4]; 0.1250 kg/ha): 9.0 | Preemergence herbicidal rating SETVI (SETVI (Foxtail, Green) [4]; 0.2500 kg/ha): 9.0 | Preemergence herbicidal rating SETVI (SETVI (Foxtail, Green) [4]; 0.5000 kg/ha): 9.0 | Herbicidal rating TRZAWR ([5]; rate 0.0156 kg/ha): 4.0 | Herbicidal rating TRZAWR ([5]; rate 0.0313 kg/ha): 4.5 | Herbicidal rating TRZAWR ([5]; rate 0.0625 kg/ha): 5.5 | Herbicidal rating TRZAWR ([5]; rate 0.1250 kg/ha): 5.5 | herbicidal effect rating, CYPIR (CYPIR (Rice Flatsedge); 0.0313 kg/ha): 3.0 | herbicidal effect rating, CYPIR (CYPIR (Rice Flatsedge); 0.0625 kg/ha): 5.0 | herbicidal effect rating, CYPIR (CYPIR (Rice Flatsedge); 0.1250 kg/ha): 6.0 | herbicidal effect rating, CYPIR (CYPIR (Rice Flatsedge); 0.2500 kg/ha): 9.0 | Herbicidal rating ZEAMX (ZEAMX (Corn, Field); rate 0.0156 kg/ha): 5.0 | Herbicidal rating ZEAMX (ZEAMX (Corn, Field); rate 0.0313 kg/ha): 5.0 | Herbicidal rating ZEAMX (ZEAMX (Corn, Field); rate 0.0625 kg/ha): 5.5 | Herbicidal rating ZEAMX (ZEAMX (Corn, Field); rate 0.1250 kg/ha): 6.5

Cn1c(C(F)(F)F)cc(=O)n(-c2cc(N=C3SCC(=O)N3CC(=O)OC3CCCC3)c(Cl)cc2F)c1=O [Compound 120, Cyclopentyl 2-{{2-chloro-5-[3,6-dihydro-3-methyl-2,6-dioxo-4-(trifluoromethyl)-1(2H)-pyrimidinyl]-4-fluorophenyl}imino}-4-oxo-3-thiazolidineacetate]
Herbicidal rating CHEAL ([1]; rate 0.0156 kg/ha): 9.0 | Herbicidal rating CHEAL ([1]; rate 0.0313 kg/ha): 9.0 | Herbicidal rating CHEAL ([1]; rate 0.0625 kg/ha): 9.0 | Herbicidal rating ABUTH (ABUTH (Velvetleaf); rate 0.0156 kg/ha): 9.0 | Herbicidal rating ABUTH (ABUTH (Velvetleaf); rate 0.0313 kg/ha): 9.0 | Herbicidal rating ABUTH (ABUTH (Velvetleaf); rate 0.0625 kg/ha): 9.0 | Herbicidal rating ORYSAT (ORYSAT (Rice, Tebonnet); rate 0.0156 kg/ha): 2.0 | Herbicidal rating ORYSAT (ORYSAT (Rice, Tebonnet); rate 0.0313 kg/ha): 2.5 | Herbicidal rating ORYSAT (ORYSAT (Rice, Tebonnet); rate 0.0625 kg/ha): 2.5 | Preemergence herbicidal rating GALAP (GALAP (Galium); rate 0.0156 kg/ha): 0.0 | Preemergence herbicidal rating GALAP (GALAP (Galium); rate 0.0313 kg/ha): 0.0 | Preemergence herbicidal rating GALAP (GALAP (Galium); rate 0.0625 kg/ha): 0.0 | Preemergence herbicidal rating GALAP (GALAP (Galium); rate 0.1250 kg/ha): 0.0 | Preemergence herbicidal rating GALAP (GALAP (Galium); rate 0.2500 kg/ha): 0.0 | Herbicidal rating SETVI (SETVI (Foxtail, Green) [2]; rate 0.0156 kg/ha): 4.0 | Herbicidal rating SETVI (SETVI (Foxtail, Green) [2]; rate 0.0313 kg/ha): 9.0 | Herbicidal rating SETVI (SETVI (Foxtail, Green) [2]; rate 0.0625 kg/ha): 9.0 | Herbicidal rating GLXMAW ([3]; rate 0.0156 kg/ha): 7.5 | Herbicidal rating GLXMAW ([3]; rate 0.0313 kg/ha): 9.0 | Herbicidal rating GLXMAW ([3]; rate 0.0625 kg/ha): 9.0 | Preemergence herbicidal rating AMBEL (AMBEL (Ragweed, Common); rate 0.0156 kg/ha): 0.0 | Preemergence herbicidal rating AMBEL (AMBEL (Ragweed, Common); rate 0.0313 kg/ha): 0.0 | Preemergence herbicidal rating AMBEL (AMBEL (Ragweed, Common); rate 0.0625 kg/ha): 3.0 | Preemergence herbicidal rating AMBEL (AMBEL (Ragweed, Common); rate 0.1250 kg/ha): 4.0 | Preemergence herbicidal rating AMBEL (AMBEL (Ragweed, Common); rate 0.2500 kg/ha): 4.0 | Preemergence herbicidal rating SETVI (SETVI (Foxtail, Green) [4]; rate 0.0156 kg/ha): 0.0 | Preemergence herbicidal rating SETVI (SETVI (Foxtail, Green) [4]; rate 0.0313 kg/ha): 0.0 | Preemergence herbicidal rating SETVI (SETVI (Foxtail, Green) [4]; rate 0.0625 kg/ha): 9.0 | Preemergence herbicidal rating SETVI (SETVI (Foxtail, Green) [4]; rate 0.1250 kg/ha): 9.0 | Preemergence herbicidal rating SETVI (SETVI (Foxtail, Green) [4]; rate 0.2500 kg/ha): 9.0 | Herbicidal rating TRZAWR ([5]; rate 0.0156 kg/ha): 3.5 | Herbicidal rating TRZAWR ([5]; rate 0.0313 kg/ha): 4.5 | Herbicidal rating TRZAWR ([5]; rate 0.0625 kg/ha): 5.0 | herbicidal effect rating, CYPIR (CYPIR (Rice Flatsedge); 0.0313 kg/ha): 2.0 | herbicidal effect rating, CYPIR (CYPIR (Rice Flatsedge); 0.0625 kg/ha): 2.5 | herbicidal effect rating, CYPIR (CYPIR (Rice Flatsedge); 0.1250 kg/ha): 3.5 | herbicidal effect rating, CYPIR (CYPIR (Rice Flatsedge); 0.2500 kg/ha): 9.0 | Herbicidal rating ZEAMX (ZEAMX (Corn, Field); rate 0.0156 kg/ha): 6.0 | Herbicidal rating ZEAMX (ZEAMX (Corn, Field); rate 0.0313 kg/ha): 7.0 | Herbicidal rating ZEAMX (ZEAMX (Corn, Field); rate 0.0625 kg/ha): 8.0
